Test results published in article PMC12247293 (Journal of Translational Medicine, 2025).

Molecular target: STAT3 (Homo sapiens, UniProt P40763)
Assay: SPR
Assay type: binding

Chain of STAT3 (P40763 2-770): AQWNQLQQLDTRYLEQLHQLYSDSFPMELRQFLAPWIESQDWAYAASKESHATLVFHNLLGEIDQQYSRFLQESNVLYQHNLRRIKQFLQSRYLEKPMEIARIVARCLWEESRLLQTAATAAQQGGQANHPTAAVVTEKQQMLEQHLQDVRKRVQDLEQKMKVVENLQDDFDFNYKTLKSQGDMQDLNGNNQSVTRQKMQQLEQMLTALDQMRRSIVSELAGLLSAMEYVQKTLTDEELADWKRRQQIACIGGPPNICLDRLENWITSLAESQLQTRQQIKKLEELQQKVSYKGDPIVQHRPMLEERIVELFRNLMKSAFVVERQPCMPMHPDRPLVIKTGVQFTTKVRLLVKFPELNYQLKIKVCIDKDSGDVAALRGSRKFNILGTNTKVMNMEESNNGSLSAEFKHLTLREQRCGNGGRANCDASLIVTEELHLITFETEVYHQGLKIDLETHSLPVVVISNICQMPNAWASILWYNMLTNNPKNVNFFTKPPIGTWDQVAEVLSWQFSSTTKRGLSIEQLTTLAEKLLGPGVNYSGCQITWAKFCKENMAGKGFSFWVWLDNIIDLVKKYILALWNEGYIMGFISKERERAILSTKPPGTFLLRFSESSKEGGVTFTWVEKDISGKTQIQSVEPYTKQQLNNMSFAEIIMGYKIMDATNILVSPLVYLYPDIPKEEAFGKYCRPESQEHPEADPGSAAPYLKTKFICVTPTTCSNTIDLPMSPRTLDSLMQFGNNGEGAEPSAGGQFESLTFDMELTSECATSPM

Kd: 871 µM
SMILES: Fc1ccc(-n2cc(CCCCN3CCC4(CC3)OCc3ccccc34)c3ccccc32)cc1 [Siramesine]
